Experimental data taken from US10570122B2, “Compounds with anti-tumoral activity” (AB Science, priority 2015, dated 2020).

Assays:
[1] = system: HL60; test: CellTiter-Blue cell-based survival/proliferation assay, HL60; settings: Homo sapiens, HL-60, Leukemia cell line HL60, 48 h, read-out: Anti-tumoral activity (measured IC50) HL60
Summary of the method: (§1)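 Tenfold compound dilutions (0–10 μM) were added to 1·10^4 cells/well. Plates incubated 48 h at 37 °C. CellTiter-Blue reduction (4 h, 37 °C) was read as fluorescence at 590 nm, background-corrected with a cell-free blank.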

[2] = system: HUT78; test: CellTiter-Blue cell-based survival/proliferation assay, HUT78; settings: Homo sapiens, Lymphoma cell line HUT78, 48 h, read-out: Anti-tumoral activity (measured IC50) HUT78
Summary of the method: as §1

[3] = system: KARPAS299; test: CellTiter-Blue cell-based survival/proliferation assay, KARPAS299; settings: Homo sapiens, KARPAS-299, Lymphoma cell line KARPAS299, 48 h, read-out: Anti-tumoral activity (measured IC50) KARPAS299
Summary of the method: as §1

[4] = system: REC1; test: CellTiter-Blue cell-based survival/proliferation assay, REC1; settings: Homo sapiens, Lymphoma cell line REC1, 48 h, read-out: Anti-tumoral activity (measured IC50) REC1
Summary of the method: as §1

[5] = system: OPM2; test: CellTiter-Blue cell-based survival/proliferation assay, OPM2; settings: Homo sapiens, OPM-2, Myeloma cell line OPM2, 48 h, read-out: Anti-tumoral activity (measured IC50) OPM2
Summary of the method: as §1

[6] = system: A498; test: CellTiter-Blue cell-based survival/proliferation assay, A498; settings: Homo sapiens; A498 kidney tumor cell line, 48 h
Summary of the method: as §1

[7] = system: A549; test: CellTiter-Blue cell-based survival/proliferation assay, A549; settings: Homo sapiens; A549 lung tumor cell line, 48 h
Summary of the method: as §1

[8] = system: ACHN; test: CellTiter-Blue cell-based survival/proliferation assay, ACHN; settings: Homo sapiens; ACHN kidney tumor cell line, 48 h
Summary of the method: as §1

[9] = system: AGS; test: CellTiter-Blue cell-based survival/proliferation assay, AGS; settings: Homo sapiens; AGS stomach tumor cell line, 48 h
Summary of the method: as §1

[10] = system: BT20; test: CellTiter-Blue cell-based survival/proliferation assay, BT20; settings: Homo sapiens, BT-20; BT20 breast tumor cell line, 48 h
Summary of the method: as §1

[11] = system: BXPC3; test: CellTiter-Blue cell-based survival/proliferation assay, BXPC3; settings: Homo sapiens, BXPC-3; BXPC3 pancreas tumor cell line, 48 h
Summary of the method: as §1

[12] = system: CALU6; test: CellTiter-Blue cell-based survival/proliferation assay, CALU6; settings: Homo sapiens, Calu-6; CALU6 lung tumor cell line, 48 h
Summary of the method: as §1

[13] = system: CLS354; test: CellTiter-Blue cell-based survival/proliferation assay, CLS354; settings: Homo sapiens, CLS-354; CLS354_4 head & neck tumor cell line, 48 h
Summary of the method: as §1

[14] = system: DLD1; test: CellTiter-Blue cell-based survival/proliferation assay, DLD1; settings: Homo sapiens, DLD-1; DLD_1 colorectal tumor cell line, 48 h
Summary of the method: as §1

[15] = system: DU145; test: CellTiter-Blue cell-based survival/proliferation assay, DU145; settings: Homo sapiens, DU-145; DU145 prostate tumor cell line, 48 h
Summary of the method: as §1

[16] = system: H1299; test: CellTiter-Blue cell-based survival/proliferation assay, H1299; settings: Homo sapiens, NCI-H1299; H1299 lung tumor cell line, 48 h
Summary of the method: as §1

[17] = system: HCT116; test: CellTiter-Blue cell-based survival/proliferation assay, HCT116; settings: Homo sapiens, HCT-116; HCT116 colorectal tumor cell line, 48 h
Summary of the method: as §1

[18] = system: HEP2; test: CellTiter-Blue cell-based survival/proliferation assay, HEP2; settings: Homo sapiens, HEp-2; HEP2 head & neck tumor cell line, 48 h
Summary of the method: as §1

[19] = system: HEPG2; test: CellTiter-Blue cell-based survival/proliferation assay, HEPG2; settings: Homo sapiens; HEPG2 liver tumor cell line, 48 h
Summary of the method: as §1

[20] = system: HGC27; test: CellTiter-Blue cell-based survival/proliferation assay, HGC27; settings: Homo sapiens, HGC-27; HGC27 stomach tumor cell line, 48 h
Summary of the method: as §1

[21] = system: MDAMB231; test: CellTiter-Blue cell-based survival/proliferation assay, MDAMB231; settings: Homo sapiens, MDA-MB-231; MDAMB231 breast tumor cell line, 48 h
Summary of the method: as §1

[22] = system: MESSA; test: CellTiter-Blue cell-based survival/proliferation assay, MESSA; settings: Homo sapiens, MES-SA; MESSA ovary tumor cell line, 48 h
Summary of the method: as §1

[23] = system: PANC1; test: CellTiter-Blue cell-based survival/proliferation assay, PANC1; settings: Homo sapiens, PANC-1; PANC_1 pancreas tumor cell line, 48 h
Summary of the method: as §1

[24] = system: PC3; test: CellTiter-Blue cell-based survival/proliferation assay, PC3; settings: Homo sapiens, PC-3; PC3 prostate tumor cell line, 48 h
Summary of the method: as §1

[25] = system: PLCPRF5; test: CellTiter-Blue cell-based survival/proliferation assay, PLCPRF5; settings: Homo sapiens, PLC-PRF-5; PLC_PRF5 liver tumor cell line, 48 h
Summary of the method: as §1

[26] = system: SW579; test: CellTiter-Blue cell-based survival/proliferation assay, SW579; settings: Homo sapiens; SW579 head & neck tumor cell line, 48 h
Summary of the method: as §1

[27] = system: TOV112D; test: CellTiter-Blue cell-based survival/proliferation assay, TOV112D; settings: Homo sapiens; TOV112D ovary tumor cell line, 48 h
Summary of the method: as §1

[28] = system: panel of about 34 human tumor cell lines; test: Cell-based proliferation screening on panel of tumor cell lines; settings: solid tumor cell line, cell line unknown, 48 h, read-out: IC50, solid tumor cell line of column 6 (last section of Table 3)
Summary of the method: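 CellTiter-Blue survival assay with 1·10^4 cells/well, each line treated 48 h at 37° C with 1/10 serial dilutions from 0 to 10 μM. Resorufin formed during a 4 h reagent incubation is read by fluorescence at 590 nm. A cell-free blank serves as background.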

| Compound | IC50 [1] [nM] | IC50 [2] [nM] | IC50 [3] [nM] | IC50 [4] [nM] | IC50 [5] [nM] | IC50 [6] [nM] | IC50 [7] [nM] | IC50 [8] [nM] | IC50 [9] [nM] | IC50 [10] [nM] | IC50 [11] [nM] | IC50 [12] [nM] | IC50 [13] [nM] | IC50 [14] [nM] | IC50 [15] [nM] | IC50 [16] [nM] | IC50 [17] [nM] | IC50 [18] [nM] | IC50 [19] [nM] | IC50 [20] [nM] | also measured |
| --- | --- | --- | --- | --- | --- | --- | --- | --- | --- | --- | --- | --- | --- | --- | --- | --- | --- | --- | --- | --- | --- |
| CCOCc1ccc(C)c(Nc2ncc(-c3ccc(-n4cc(C)cn4)cc3)o2)c1 [Example 040, (5-Ethoxymethyl-2-methyl-phenyl)-{5-[4-(4-methyl-pyrazol-1-yl)-phenyl]-oxazol-2-yl}-amine] | > 1000 | > 1000 | > 1000 | > 1000 | > 1000 | > 1000 | > 1000 | > 1000 | > 1000 | > 1000 | > 1000 | > 1000 | > 1000 | > 1000 | > 1000 | > 1000 | > 1000 | > 1000 | > 1000 | > 1000 | IC50 [21]: > 1000 nM; IC50 [22]: > 1000 nM; IC50 [23]: > 1000 nM; IC50 [24]: > 1000 nM; IC50 [25]: > 1000 nM; IC50 [26]: > 1000 nM; IC50 [27]: > 1000 nM; IC50 [28]: > 1000 nM |
| CCOCc1ccc(C)c(Nc2ncc(-c3ccc(N4CCN(C)C4=O)cc3)o2)c1 [Example 044, 1-{4-[2-(5-Ethoxymethyl-(2-methyl-phenylamino))-oxazol-5-yl]-phenyl}-3-methyl-imidazolidin-2-one] | 100 to 500 | 500 to 1000 | 100 to 500 | 100 to 500 | 500 to 1000 | > 1000 | > 1000 | > 1000 | > 1000 | > 1000 | > 1000 | > 1000 | 500 to 1000 | > 1000 | > 1000 | > 1000 | > 1000 | > 1000 | > 1000 | > 1000 | IC50 [21]: > 1000 nM; IC50 [22]: > 1000 nM; IC50 [23]: > 1000 nM; IC50 [24]: 500 to 1000 nM; IC50 [25]: > 1000 nM; IC50 [26]: > 1000 nM; IC50 [27]: > 1000 nM; IC50 [28]: 100 to 500 nM |
| CCOCc1ccc(C)c(Nc2ncc(-c3ccc(N4CCN(CCN)C4=O)cc3)o2)c1 [Example 045, 1-(2-Amino-ethyl)-3-{4-[2-(5-ethoxymethyl-(2-methyl-phenylamino))-oxazol-5-yl]-phenyl}-imidazolidin-2-one] | > 1000 | > 1000 | > 1000 | > 1000 | > 1000 | > 1000 | > 1000 | > 1000 | > 1000 | > 1000 | > 1000 | > 1000 | > 1000 | > 1000 | > 1000 | > 1000 | > 1000 | > 1000 | > 1000 | > 1000 | IC50 [21]: > 1000 nM; IC50 [22]: > 1000 nM; IC50 [23]: > 1000 nM; IC50 [24]: > 1000 nM; IC50 [25]: > 1000 nM; IC50 [26]: > 1000 nM; IC50 [27]: > 1000 nM; IC50 [28]: > 1000 nM |
| CCOCc1ccc(C)c(Nc2ncc(-c3ccc(N4CCN(CCNC(C)=O)C4=O)cc3)o2)c1 [Example 046, N-[2-(3-{4-[2-(5-Ethoxymethyl-(2-methyl-phenylamino))-oxazol-5-yl]-phenyl}-2-oxo-imidazolidin-1-yl)-ethyl]-acetamide] | > 1000 | > 1000 | > 1000 | > 1000 | > 1000 | > 1000 | > 1000 | > 1000 | > 1000 | > 1000 | > 1000 | > 1000 | > 1000 | > 1000 | > 1000 | > 1000 | > 1000 | > 1000 | > 1000 | > 1000 | IC50 [21]: > 1000 nM; IC50 [22]: > 1000 nM; IC50 [23]: > 1000 nM; IC50 [24]: > 1000 nM; IC50 [25]: > 1000 nM; IC50 [26]: > 1000 nM; IC50 [27]: > 1000 nM; IC50 [28]: > 1000 nM |
| CCOCc1ccc(C)c(Nc2ncc(-c3ccc(-c4ccccn4)cc3)o2)c1 [Example 048, (5-Ethoxymethyl-2-methyl-phenyl)-[5-(4-pyridin-2-yl-phenyl)-oxazol-2-yl]-amine] | 100 to 500 | 500 to 1000 | 500 to 1000 | 500 to 1000 | 500 to 1000 | > 1000 | > 1000 | > 1000 | > 1000 | > 1000 | > 1000 | > 1000 | 500 to 1000 | > 1000 | > 1000 | > 1000 | > 1000 | > 1000 | > 1000 | > 1000 | IC50 [21]: > 1000 nM; IC50 [22]: > 1000 nM; IC50 [23]: > 1000 nM; IC50 [24]: > 1000 nM; IC50 [25]: > 1000 nM; IC50 [26]: > 1000 nM; IC50 [27]: > 1000 nM; IC50 [28]: 500 to 1000 nM |
